Experimental findings from US12433864B2, “5,6-diHETE lactone for treatment of microvascular dysfunction” (MIGAL GALILEE RESEARCH INSTITUTE LTD., priority 2019, dated 2025) are described below.

The assay deals with mouse mesenteric resistance arteries. Nature of the assay: Vascular reactivity in mouse mesenteric resistance arteries (wire myograph). Particulars: 10^−5 mol/L, pre-constricted with U-46619 0.1 μmol/L, n=11. The method, then: On the day preceding the experiment, adult male mice (age 3-6 months) were decapitated and mesenteric tissue was dissected and placed on an agar plate with ice-cold HEPES-physiological saline solution (PSS) containing: 123 mM NaCl, 4.7 mM KCl, 2.5 mM CaCl2*2H2O, 1.2 mM MgSO4*7H2O, 20 mM NaHCO3, 1.2 mM KH2PO4, 26 μM EDTA, 11 mM glucose and 2.38 mg/ml HEPES Fat and connective tissue were carefully removed, arterioles (150-200 μm diameter) were cut into 3 mm segments and stored overnight at 4° C. The vessels were then mounted carefully on two tungsten wires (0.025 mm diameter) with care not to damage the endothelium, and mounted on a four-chamber wire myograph (DMT, Denmark, Model 620 M). Arteries were then equilibrated at 37° C. for 30 min in the myograph chamber filled with PSS and constantly bubbled with gas containing 21% O2, 74% N2, and 5% CO2 and set at 1 mN resting tension obtained in the LabChart Pro software (AD instruments, Oxfordshire, UK). […] After contraction reached steady state, cumulative concentrations of 5,6-diHETE lactone were added (1 μM to 10 μM) in DMSO (up to 0.16%) and the % relaxation responses were determined relative to the relaxation response to 100 μM papaverine.
To evaluate the vasodilation mediated by 5,6-diHETE lactone, mesenteric arteries from C57BL were extracted and monitored for their dilation in a wire myograph chamber under physiological conditions. […]

For the compound `CCC=CCC=CCC=CCC=CCC(O)C1CCCC(=O)O1` (racemic) [5,6-diHETE lactone, 5,6 dihydroxyeicosatetraenoic acid (5,6-diHETE) lactone], the “% dilation (relative to 100 μM papaverine)” value is listed as 29.4±3.1%.
